Read-outs that look alike come from different tables or passages of the source. Starred links: 1 amine or outer side, 2 acyl side, 3 side chain; linkers in the order of their positions; H or OH if unused. Non-standard residues stand in square brackets, D forms with d. Residues, ends and D or L forms follow the SMILES beside them. Groups on a side chain read outwards from the residue. *: point of attachment. C16 diacid = O=C(O)CCCCCCCCCCCCCCC(=O)*; γGlu = O=C(O)[C@H](CCC(=O)[*:2])N[*:1]; AEEA = NCCOCCOCC(=O)O; Aib = CC(C)(N)C(=O)O

Data on 4 molecules can be found in US12679878B2, “CRF2 receptor agonists and their use in therapy” (SANOFI, priority 2020, dated 2026).

Test [1] concerns the target T1, human CRF2α receptor (Homo sapiens, UniProt Q13324).
T1 construct: expressed in transfected cells; host or cells: TeloHEAC
T1 sequence (Q13324 1-411): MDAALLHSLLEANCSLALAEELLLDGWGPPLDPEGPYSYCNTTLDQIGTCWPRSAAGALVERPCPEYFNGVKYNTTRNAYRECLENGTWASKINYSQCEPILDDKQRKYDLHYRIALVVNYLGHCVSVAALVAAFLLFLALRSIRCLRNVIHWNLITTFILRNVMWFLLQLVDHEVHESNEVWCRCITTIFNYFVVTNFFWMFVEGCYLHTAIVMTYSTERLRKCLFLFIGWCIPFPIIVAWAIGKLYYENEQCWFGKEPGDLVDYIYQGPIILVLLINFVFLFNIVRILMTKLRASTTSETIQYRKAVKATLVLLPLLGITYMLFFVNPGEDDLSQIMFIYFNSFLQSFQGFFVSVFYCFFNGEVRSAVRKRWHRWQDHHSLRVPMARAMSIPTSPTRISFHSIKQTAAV
Nature of the test: cAMP agonism at human CRF2α receptor in TeloHEAC cells, FA modified peptides (Example 19.9). The test is classed as cell-based. To be noted: 0% HSA, relative to urocortin 2. The method, then: Agonism of compounds for human corticotropin-releasing factor 2α (CRF2α receptor) was determined by a functional assay measuring cAMP modulation upon treatment of TeloHEAC cells stably expressing human CRF2α receptor.
Compounds were dissolved at 0.5 mM in 100% DMSO and serially diluted (1:2) in 100% DMSO for 16 dilutions. 20 nL of each dilution was then transferred to 384-well assay plate using an acoustic droplet ejection instrument. 5 μL of compound buffer (1×HBSS; 20 mM HEPES, 2 mM IBMX, 0% or 0.2% HSA) were then added to each well.
Prior to use, frozen cells were thawed quickly at 37° C. and washed (5 min at 900 rpm) with 20 mL cell buffer (1×HBSS; 20 mM HEPES). Cells were resuspended in cell buffer and adjusted to a cell density of 800.000 cells/ml.
5 μL cells (final dell density: 4000 cells/well) were dispensed in the compound-containing 384-well assay plate and incubated for 30 minutes 37° C.
The CAMP level in treated cells was determined using the Cisbio 62AM4PEC kit according to manufacturer's instruction. Finally, plates were incubated for 1 h at room temperature before measuring the fluorescence ratio between 665/620 nm.
The percent activity value (E %) was calculated by setting 100 nM of urocortin 2 (UCN2) as 100%. The in vitro potency of the compounds was quantified by determining the concentrations that caused 50% activation of maximal response (EC50) relative to urocortin 2.

The target in test [2] is T2, CRF1R receptor (Homo sapiens, UniProt P34998).
T2 construct: host or cells: CHO-K1 clone 2
T2 sequence (P34998 24-415): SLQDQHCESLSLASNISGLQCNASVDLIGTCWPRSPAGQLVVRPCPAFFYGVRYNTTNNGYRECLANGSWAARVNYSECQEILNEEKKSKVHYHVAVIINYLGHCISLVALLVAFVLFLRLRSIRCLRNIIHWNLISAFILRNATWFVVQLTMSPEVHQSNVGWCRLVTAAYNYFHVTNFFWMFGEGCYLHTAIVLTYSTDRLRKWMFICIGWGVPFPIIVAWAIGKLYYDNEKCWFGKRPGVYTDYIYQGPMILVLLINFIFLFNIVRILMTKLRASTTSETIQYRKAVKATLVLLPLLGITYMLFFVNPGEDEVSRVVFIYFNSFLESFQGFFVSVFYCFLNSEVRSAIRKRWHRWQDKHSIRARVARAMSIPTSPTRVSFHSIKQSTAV
Nature of the test: cAMP activity at anti-target CRF1R, CHO-K1 cell line clone 2 (Example 19.10). Format: cell-based. To be noted: for Emax: 100% = Sauvagine at 100 nM; for CRF1/CRF2 ratio: ratio of CRF1 EC50 to CRF2 EC50. The essentials: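 A CRF1R-overexpressing CHO-K1 line (clone 2) was grown in F12/10% FBS/G418 and frozen in aliquots before use. The cAMP assay followed the preceding procedure, with 100% activation defined by Sauvagine at 100 nM.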

Where [3] appears, read: 0% HSA, CRF1R CHO-K1 clone 2, read-out: EC50 [nM] 0% HSA.
The mark [4] stands for this setting: Table 20 side-to-side comparison, read-out: CRF1 EC50.

With `CC[C@H](C)[C@H](N)C(=O)N[C@H](C(=O)N[C@@H](CC(C)C)C(=O)N[C@@H](CO)C(=O)N[C@@H](CC(C)C)C(=O)N[C@@H](CC(=O)O)C(=O)N[C@@H](C(=O)N1CCC[C@H]1C(=O)N[C@H](C(=O)NCC(=O)N[C@@H](CC(C)C)C(=O)N[C@@H](CCCCNC(=O)CC[C@H](NC(=O)CCCCCCCCCCCCCCC(=O)O)C(=O)O)C(=O)N[C@@H](CCC(N)=O)C(=O)N[C@H](C(=O)N[C@@H](CC(C)C)C(=O)N[C@@H](CC(C)C)C(=O)N[C@@H](CCCCN)C(=O)N[C@@H](CCC(N)=O)C(=O)N[C@@H](CCC(=O)O)C(=O)N[C@@H](CCCNC(=N)N)C(=O)N[C@@H](CCC(N)=O)C(=O)N[C@@H](CCCCN)C(=O)N[C@@H](CCCCN)C(=O)NC(C)(C)C(=O)N[C@@H](CCCNC(=N)N)C(=O)N[C@@H](CCC(N)=O)C(=O)N[C@@H](CCC(N)=O)C(=O)N[C@@H](C)C(=O)N[C@@H](CCC(=O)O)C(=O)N[C@H](C(=O)N[C@@H](CC(N)=O)C(=O)N[C@@H](CCCCN)C(=O)N[C@@H](CCCNC(=N)N)C(=O)N[C@H](C(=O)N[C@@H](CC(C)C)C(=O)N[C@@H](CCC(=O)O)C(=O)N[C@@H](CCCNC(=N)N)C(=O)N[C@H](C(N)=O)C(C)C)[C@@H](C)CC)[C@@H](C)O)[C@@H](C)CC)[C@@H](C)CC)C(C)C)C(C)C` [compound 195] (H-IVLSLD[dV]PIGLK([γGlu-C16 diacid])QILLKQERQKK[Aib]RQQAETNKRILERV-NH2), the EC50 in test [1] is 0.34 nM; in test [2] (setting [3]) it was > 100 nM; in test [2] (setting [4]), > 100 nM. In test [2] (CRF1R CHO-K1 clone 2), this molecule came in with an Emax of 17.1%. In test [2], the CRF1/CRF2 ratio is given as >500.

As to `CC[C@H](C)[C@H](N)C(=O)N[C@H](C(=O)N[C@@H](CC(C)C)C(=O)N[C@@H](CO)C(=O)N[C@@H](CC(C)C)C(=O)N[C@@H](CC(=O)O)C(=O)N[C@@H](C(=O)N1CCC[C@H]1C(=O)N[C@H](C(=O)NCC(=O)N[C@@H](CC(C)C)C(=O)N[C@@H](CCCCNC(=O)CC[C@H](NC(=O)CCCCCCCCCCCCCCC(=O)O)C(=O)O)C(=O)N[C@@H](CCC(N)=O)C(=O)N[C@H](C(=O)N[C@@H](CC(C)C)C(=O)N[C@@H](CC(C)C)C(=O)N[C@@H](CCCCN)C(=O)N[C@@H](CCC(N)=O)C(=O)N[C@@H](CCC(=O)O)C(=O)N[C@@H](CCCNC(=N)N)C(=O)N[C@@H](CCC(N)=O)C(=O)N[C@@H](CCCCN)C(=O)N[C@@H](CCCCN)C(=O)NC(C)(C)C(=O)N[C@@H](CCCNC(=N)N)C(=O)N[C@@H](CCC(=O)O)C(=O)N[C@@H](CCC(N)=O)C(=O)N[C@@H](C)C(=O)N[C@@H](CCC(=O)O)C(=O)N[C@@H](CCCCN)C(=O)N[C@@H](CC(N)=O)C(=O)N[C@@H](CCCCN)C(=O)N[C@@H](CCCNC(=N)N)C(=O)N[C@H](C(=O)N[C@@H](CC(C)C)C(=O)N[C@@H](CCC(=O)O)C(=O)N[C@@H](CCCNC(=N)N)C(=O)N[C@H](C(N)=O)C(C)C)[C@@H](C)CC)[C@@H](C)CC)[C@@H](C)CC)C(C)C)C(C)C` [compound 196] (H-IVLSLD[dV]PIGLK([γGlu-C16 diacid])QILLKQERQKK[Aib]REQAEKNKRILERV-NH2; N-terminus assumed), the EC50 is 1.08 nM in test [1], > 100 nM in test [2] (setting [3]) and > 100 nM in test [2] (setting [4]). This molecule returned an Emax in test [2] (CRF1R CHO-K1 clone 2) of 16.9%. For the same molecule, in test [2], the CRF1/CRF2 ratio is listed as >500.

For `CC[C@H](C)[C@H](N)C(=O)N[C@H](C(=O)N[C@@H](CC(C)C)C(=O)N[C@@H](CO)C(=O)N[C@@H](CC(C)C)C(=O)N[C@@H](CC(=O)O)C(=O)N[C@@H](C(=O)N1CCC[C@H]1C(=O)N[C@H](C(=O)N[C@@H](CCCCN)C(=O)N[C@@H](CC(C)C)C(=O)N[C@@H](CCCCNC(=O)CC[C@H](NC(=O)CCCCCCCCCCCCCCC(=O)O)C(=O)O)C(=O)N[C@@H](CCC(N)=O)C(=O)N[C@H](C(=O)N[C@@H](CC(C)C)C(=O)N[C@@H](CC(C)C)C(=O)N[C@@H](CCCCN)C(=O)N[C@@H](CCC(N)=O)C(=O)N[C@@H](C)C(=O)N[C@@H](CCCNC(=N)N)C(=O)N[C@@H](CCC(N)=O)C(=O)N[C@@H](CCCCN)C(=O)NC(C)(C)C(=O)N[C@@H](CCC(N)=O)C(=O)N[C@@H](CCCNC(=N)N)C(=O)N[C@@H](C)C(=O)N[C@@H](CCC(N)=O)C(=O)N[C@@H](C)C(=O)N[C@@H](CCC(=O)O)C(=O)N[C@@H](CCCCN)C(=O)N[C@@H](CC(N)=O)C(=O)N[C@@H](CCCCN)C(=O)N[C@@H](CCCNC(=N)N)C(=O)N[C@H](C(=O)N[C@@H](CC(C)C)C(=O)N[C@@H](CCC(=O)O)C(=O)N[C@@H](CCCNC(=N)N)C(=O)N[C@H](C(N)=O)C(C)C)[C@@H](C)CC)[C@@H](C)CC)[C@@H](C)CC)C(C)C)C(C)C` [compound 197] (H-IVLSLD[dV]PIKLK([γGlu-C16 diacid])QILLKQARQK[Aib]QRAQAEKNKRILERV-NH2; N-terminus assumed), the half-maximal effective concentration (EC50) is 2.27 nM in test [1], > 100 nM in test [2] (setting [3]) and > 100 nM in test [2] (setting [4]). The molecule further came in with an Emax in test [2] (CRF1R CHO-K1 clone 2) of 24.4%. Moreover, in test [2], the CRF1/CRF2 ratio was >500.

As for `CC[C@H](C)[C@H](N)C(=O)N[C@H](C(=O)N[C@@H](CC(C)C)C(=O)N[C@@H](CO)C(=O)N[C@@H](CC(C)C)C(=O)N[C@@H](CC(=O)O)C(=O)N[C@@H](C(=O)N1CCC[C@H]1C(=O)N[C@H](C(=O)N[C@@H](CCCCN)C(=O)N[C@@H](CC(C)C)C(=O)N[C@@H](CCCCNC(=O)COCCOCCNC(=O)COCCOCCNC(=O)CC[C@H](NC(=O)CCCCCCCCCCCCCCC(=O)O)C(=O)O)C(=O)N[C@@H](CCC(N)=O)C(=O)N[C@H](C(=O)N[C@@H](CC(C)C)C(=O)N[C@@H](CC(C)C)C(=O)N[C@@H](CCCCN)C(=O)N[C@@H](CCC(N)=O)C(=O)N[C@@H](CCC(=O)O)C(=O)N[C@@H](CCCNC(=N)N)C(=O)N[C@@H](CCC(N)=O)C(=O)N[C@@H](CCCCN)C(=O)NC(C)(C)C(=O)N[C@@H](CCC(N)=O)C(=O)N[C@@H](CCCNC(=N)N)C(=O)N[C@@H](CCC(=O)O)C(=O)N[C@@H](CCC(N)=O)C(=O)N[C@@H](C)C(=O)N[C@@H](CCC(=O)O)C(=O)N[C@@H](CCCCN)C(=O)N[C@@H](CC(N)=O)C(=O)N[C@@H](CCCCN)C(=O)N[C@@H](CCC(N)=O)C(=O)N[C@H](C(=O)N[C@@H](CC(C)C)C(=O)N[C@@H](C)C(=O)N[C@@H](CCC(N)=O)C(=O)N[C@H](C(N)=O)C(C)C)[C@@H](C)CC)[C@@H](C)CC)[C@@H](C)CC)C(C)C)C(C)C` [compound 198] (H-IVLSLD[dV]PIKLK([AEEA-AEEA-γGlu-C16 diacid])QILLKQERQK[Aib]QREQAEKNKQILAQV-NH2; N-terminus assumed), the EC50 in test [1] is 0.49 nM; in test [2] (setting [3]), > 100 nM. Besides, in test [2] (CRF1R CHO-K1 clone 2), the Emax came out at 1.4%.

In general, EC50 refers to the midpoint of the concentration-response curve. One may read the Emax as the maximal effect, on the per cent scale that the assay sets.
